Assay results: PMC4281354, “The opioid receptor pharmacology of GSK1521498 compared to other ligands with differential effects on compulsive reward-related behaviours” (Psychopharmacology, 2014)
Structures can show the parent of a compound that is named as a salt. Where two headings read alike, the source gives them in different places.

Experiments:
[1] = tested on: K+ current in rat brain neurons; set-up: method as in Bailey et al. [2009]; conditions: ref Bailey et al. [2009], read-out: EC50 for activation of the K+ current; cited from earlier work
human NOPr = human NOPr (Homo sapiens, UniProt P41146); experiment: Antagonism of nociceptin-stimulated [35S]GTPγS binding, CHO membranes overexpressing NOPr (SPA, antagonist mode); assay type: biochemical
Sequence of human NOPr (P41146 whole entry): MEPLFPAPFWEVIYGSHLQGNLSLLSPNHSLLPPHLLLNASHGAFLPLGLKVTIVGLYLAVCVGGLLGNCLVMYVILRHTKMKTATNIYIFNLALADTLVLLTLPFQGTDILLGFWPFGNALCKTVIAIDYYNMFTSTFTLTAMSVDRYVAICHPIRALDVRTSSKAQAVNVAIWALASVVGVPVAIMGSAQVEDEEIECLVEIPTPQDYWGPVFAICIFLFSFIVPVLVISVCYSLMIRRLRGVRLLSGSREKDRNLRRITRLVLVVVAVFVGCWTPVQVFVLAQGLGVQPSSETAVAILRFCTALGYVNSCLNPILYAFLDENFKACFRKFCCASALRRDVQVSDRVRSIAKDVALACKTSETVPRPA

MOPr [2] = molecular target: T1, MOPr (Homo sapiens, UniProt P35372); experiment: Basal [35S]GTPγS binding, CHO membranes overexpressing MOPr (agonist mode); assay type: biochemical
T1 sequence (P35372 whole entry): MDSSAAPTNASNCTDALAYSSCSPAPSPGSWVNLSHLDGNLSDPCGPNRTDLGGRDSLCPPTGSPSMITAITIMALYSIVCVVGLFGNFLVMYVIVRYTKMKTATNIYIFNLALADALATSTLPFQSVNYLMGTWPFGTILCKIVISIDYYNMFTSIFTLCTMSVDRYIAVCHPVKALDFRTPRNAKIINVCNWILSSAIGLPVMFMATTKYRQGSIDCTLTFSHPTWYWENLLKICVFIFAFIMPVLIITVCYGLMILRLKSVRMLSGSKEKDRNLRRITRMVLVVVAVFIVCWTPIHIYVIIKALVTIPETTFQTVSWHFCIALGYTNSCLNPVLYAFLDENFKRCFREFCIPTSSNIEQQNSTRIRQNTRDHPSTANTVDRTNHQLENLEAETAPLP

MOPr [3] = molecular target: T1, MOPr; experiment: Antagonism of Met-Enk-stimulated [35S]GTPγS binding, CHO membranes overexpressing MOPr (SPA, antagonist mode); assay type: biochemical
cocaine seeking = tested on: cocaine seeking; set-up: method as in Giuliano et al. [2013]; conditions: ref Giuliano et al. [2013]; cited from earlier work
human DOPr = human DOPr (Homo sapiens, UniProt P41143); experiment: Antagonism of Met-Enk-stimulated [35S]GTPγS binding, CHO membranes overexpressing DOPr (SPA, antagonist mode); assay type: biochemical
Sequence of human DOPr (P41143 whole entry): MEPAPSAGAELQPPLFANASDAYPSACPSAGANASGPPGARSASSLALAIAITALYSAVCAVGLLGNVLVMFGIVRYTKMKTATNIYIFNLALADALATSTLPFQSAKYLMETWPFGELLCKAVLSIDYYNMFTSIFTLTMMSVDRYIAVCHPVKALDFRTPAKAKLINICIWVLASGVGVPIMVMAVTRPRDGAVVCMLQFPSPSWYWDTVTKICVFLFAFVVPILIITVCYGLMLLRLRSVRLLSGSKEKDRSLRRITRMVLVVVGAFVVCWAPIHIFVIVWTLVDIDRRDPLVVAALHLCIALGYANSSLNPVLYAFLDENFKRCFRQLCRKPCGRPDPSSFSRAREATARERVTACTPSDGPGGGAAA

MOPr [4] = molecular target: T1, MOPr; experiment: [3H]naloxone dissociation kinetics from MOPr, MOPr-HEK293 membranes; assay type: binding; conditions: drug 1 μM
heroin seeking = tested on: heroin seeking; set-up: method as in Giuliano et al. [2013]; conditions: ref Giuliano et al. [2013]; cited from earlier work
MOPr [5] = molecular target: T1, MOPr; experiment: [3H]naloxone competition displacement binding, MOPr-HEK293 membranes
human KOPr = human KOPr (Homo sapiens, UniProt P41145); experiment: Antagonism of dynorphin-stimulated [35S]GTPγS binding, CHO membranes overexpressing KOPr (SPA, antagonist mode); assay type: biochemical
Sequence of human KOPr (P41145 whole entry): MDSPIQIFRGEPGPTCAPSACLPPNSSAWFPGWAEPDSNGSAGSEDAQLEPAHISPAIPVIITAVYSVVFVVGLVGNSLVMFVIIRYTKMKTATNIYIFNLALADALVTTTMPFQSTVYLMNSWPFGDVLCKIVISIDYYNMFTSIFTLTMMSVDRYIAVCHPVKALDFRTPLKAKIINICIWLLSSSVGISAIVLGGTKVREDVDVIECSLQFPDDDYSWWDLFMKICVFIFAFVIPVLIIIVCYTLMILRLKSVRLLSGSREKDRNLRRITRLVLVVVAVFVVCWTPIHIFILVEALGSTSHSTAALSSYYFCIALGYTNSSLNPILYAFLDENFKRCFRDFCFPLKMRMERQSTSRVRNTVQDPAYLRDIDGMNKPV

MOPr [6] = molecular target: T1, MOPr; experiment: Basal [35S]GTPγS binding, membranes from CHO cells expressing a low level of MOPr; assay type: biochemical; conditions: 1 μM, CHO MOPr approximately 70 fmol per milligram of protein
[7] = molecular target: MOPr in mouse brain membranes (Mus musculus, UniProt P42866); experiment: Basal [35S]GTPγS binding, whole mouse brain membranes (naive or morphine-pretreated mice); assay type: biochemical; conditions: 1 μM
Sequence of MOPr in mouse brain membranes (P42866 whole entry): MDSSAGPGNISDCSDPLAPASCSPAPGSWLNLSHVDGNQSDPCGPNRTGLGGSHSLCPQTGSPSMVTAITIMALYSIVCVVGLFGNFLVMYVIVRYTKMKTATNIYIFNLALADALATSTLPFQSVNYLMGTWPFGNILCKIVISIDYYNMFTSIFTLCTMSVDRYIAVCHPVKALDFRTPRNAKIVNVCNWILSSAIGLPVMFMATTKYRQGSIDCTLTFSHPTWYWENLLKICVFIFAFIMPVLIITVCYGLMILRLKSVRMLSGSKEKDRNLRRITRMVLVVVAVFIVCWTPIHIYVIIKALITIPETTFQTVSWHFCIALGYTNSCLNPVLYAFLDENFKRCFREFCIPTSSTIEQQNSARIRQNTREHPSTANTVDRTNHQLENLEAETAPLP

[8] = from fpKi, GTPγS antagonist mode

## CSCC[C@H](NC(=O)[C@H](Cc1ccccc1)NC(=O)CNC(=O)CNC(=O)[C@@H](N)Cc1ccc(O)cc1)C(=O)O [Met-Enk, methionine enkephalin acetate salt hydrate]
[1]
  EC50: 1000 nM

## Oc1ccc2c3c1O[C@H]1[C@H](O)CC[C@@]4(O)[C@@H](C2)N(CC2CC2)CC[C@]314 [6β-Naltrexol, 6-β-naltrexol]
Human NOPr; vs nociceptin, CHO cells overexpressing NOPr, mean ± SEM of three experiments
  Antagonist potency (fpKi) NOPr: <5

## C=C1CC[C@@]2(O)[C@H]3Cc4ccc(O)c5c4[C@@]2(CCN3CC2CC2)[C@H]1O5 [Nalmefene, nalmefene, reference compound]
Human NOPr
  Ki: > 10000 nM
MOPr [2]
  enhancement of basal [35S]GTPγS binding: 20%
MOPr [3]
  completeness of inhibition of the agonist response at MOPr: did not produce complete inhibition

## Fc1cc(-c2cccc(-c3nc[nH]n3)c2)cc(F)c1CNC1Cc2ccccc2C1.O=P(O)(O)O [GSK1521498, N-{[3,5-difluoro-3′-(1H-1,2,4-triazol-3-yl)-4-biphenylyl]methyl}-2,3-dihydro-1H-inden-2-amine phosphate (1:1)]
Cocaine seeking
  greater reduction in cocaine seeking compared to naltrexone 3 mg/kg: 2.5 fold
Human DOPr; [8]
  selectivity for MOPr over DOPr: 14 fold
Human DOPr; vs Met-Enk, CHO cells overexpressing DOPr, mean ± SEM of three experiments, read-out: Antagonist potency (fpKi) DOPr (converted)
  Ki: 3.16 nM
MOPr [4]
  rate of 3H-naloxone dissociation in the presence of drug: unchanged
Heroin seeking
  greater reduction in heroin seeking compared to naltrexone 3 mg/kg: 5.5 fold
Human NOPr; vs nociceptin, CHO cells overexpressing NOPr, mean ± SEM of three experiments, read-out: Antagonist potency (fpKi) NOPr (converted)
  Ki: 257 nM
MOPr [5]; HEK293 MOPr membranes
  maximum displacement of specific 3H-naloxone binding: 100%
MOPr [5]; read-out: Affinity of binding (pKi) to MOPr (converted)
  Ki: 0.417 nM
Human KOPr; [8]
  selectivity for MOPr over KOPr: 14 fold
Human KOPr; vs dynorphin, CHO cells overexpressing KOPr, mean ± SEM of three experiments, read-out: Antagonist potency (fpKi) KOPr (converted)
  Ki: 3.31 nM
MOPr [2]; CHO membranes highly overexpressing MOPr (Bmax 14,500 fmol/mg protein)
  inhibition of basal [35S]GTPγS binding: up to 18%
MOPr [2]; at any of the opioid receptors, concentrations up to 100 μM
  agonist activity when administered alone: did not show agonist activity
MOPr [2]; p < 0.001, ANOVA
  concentrations producing a significant inhibition of basal [35S]GTPγS binding: greater than 0.4 nM
MOPr [6]
  effect on basal level of GTPγS binding: did not modify
[7]; brain membranes from naïve mice
  effect on basal [35S]GTPγS binding, naïve mice: did not reduce
[7]; brain membranes, 75 mg morphine pellet sc 3 days
  effect on basal [35S]GTPγS binding, severe morphine pre-treatment: very slight but statistically significant inhibition
[7]; brain membranes, morphine 100 mg/kg sc 4 h before sacrifice
  effect on basal [35S]GTPγS binding, acute morphine pre-treatment: did not reduce
[7]; brain membranes, sc morphine at 8-h intervals for 3 days
  effect on basal [35S]GTPγS binding, moderate morphine pre-treatment: did not reduce
MOPr [3]; Met-Enk-stimulated GTPγS binding, CHO overexpressing MOPr
  completeness of inhibition of the agonist response at MOPr: completely antagonize
MOPr [3]; vs Met-Enk, CHO cells overexpressing MOPr, mean ± SEM of three experiments, read-out: Antagonist potency (fpKi) MOPr (converted)
  Ki: 0.229 nM
